Among the data in patent publication US11814367B2, “Inhibitors of glycogen synthase 1 (GYS1) and methods of use thereof” (Maze Therapeutics, Inc., priority 2021, dated 2023) are IC50 values, retold here.

For experiment [1], the target named is hGYS1 enzyme (recombinant hGYS1/GN1 protein) (Homo sapiens (Human), UniProt P13807). The experiment in a line: GYS1 coupled enzyme assay (PK/LDH). The format is biochemical. Particulars: hGYS1/GN1 50 nM, UDP-Glucose 0.8 mM, G6P 1 mM; geometric mean of at least 2 runs.
hGYS1 enzyme (recombinant hGYS1/GN1 protein), sequence (P13807 whole entry): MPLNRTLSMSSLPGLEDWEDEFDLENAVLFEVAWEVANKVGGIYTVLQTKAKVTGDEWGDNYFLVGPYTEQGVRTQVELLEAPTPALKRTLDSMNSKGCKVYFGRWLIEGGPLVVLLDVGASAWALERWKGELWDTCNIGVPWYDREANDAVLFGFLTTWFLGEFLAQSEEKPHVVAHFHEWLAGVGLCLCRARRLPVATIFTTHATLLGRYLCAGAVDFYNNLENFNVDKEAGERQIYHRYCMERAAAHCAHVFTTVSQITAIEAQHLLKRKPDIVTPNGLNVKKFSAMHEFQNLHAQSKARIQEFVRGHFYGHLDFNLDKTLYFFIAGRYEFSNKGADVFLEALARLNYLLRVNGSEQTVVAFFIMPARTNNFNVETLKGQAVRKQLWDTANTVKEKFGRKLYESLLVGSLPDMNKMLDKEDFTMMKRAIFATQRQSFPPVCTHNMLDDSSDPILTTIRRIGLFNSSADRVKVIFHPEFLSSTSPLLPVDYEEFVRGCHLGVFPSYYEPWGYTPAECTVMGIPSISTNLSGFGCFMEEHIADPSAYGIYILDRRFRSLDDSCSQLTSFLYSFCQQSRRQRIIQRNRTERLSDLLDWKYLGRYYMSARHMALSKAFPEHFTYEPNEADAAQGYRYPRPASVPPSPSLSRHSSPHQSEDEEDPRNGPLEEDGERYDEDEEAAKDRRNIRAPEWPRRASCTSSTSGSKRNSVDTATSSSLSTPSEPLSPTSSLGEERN
hGYS1 enzyme (recombinant hGYS1/GN1 protein), sequence (P46976 whole entry partner): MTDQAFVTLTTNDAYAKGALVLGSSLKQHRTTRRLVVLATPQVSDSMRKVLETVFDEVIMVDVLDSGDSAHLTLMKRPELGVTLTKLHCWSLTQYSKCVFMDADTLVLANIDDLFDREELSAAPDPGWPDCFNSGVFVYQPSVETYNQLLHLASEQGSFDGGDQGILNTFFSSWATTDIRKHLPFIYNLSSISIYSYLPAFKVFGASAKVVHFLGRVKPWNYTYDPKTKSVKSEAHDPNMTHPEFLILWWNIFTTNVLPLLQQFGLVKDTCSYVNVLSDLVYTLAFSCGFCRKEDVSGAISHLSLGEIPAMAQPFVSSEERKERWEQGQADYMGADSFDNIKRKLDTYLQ
Experiment [2] addresses hGYS2 enzyme (recombinant hGYS2/GN1 protein) (Homo sapiens (Human), UniProt P54840). The experiment in a line: GYS2 coupled enzyme assay (PK/LDH). It is filed as biochemical. To be noted: geometric mean of at least 2 assay runs on separate days, read-out: Avg_IC50. The essentials: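 IC50 came from Hill fits of duplicate percent inhibition, based on control-normalized slopes of 340 nm NADH decline read each minute for 10 min. The reaction held recombinant hGYS2/GN1 (200 nM) with glycogen, UDP-glucose, G6P and PEP, plus PK/LDH coupling at pH 7.5 and 2.5% DMSO.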

Molecules are shown by their SMILES. Where only a bound is given, the exact number is not on record here.

hGYS2 enzyme (recombinant hGYS2/GN1 protein), sequence (P54840 whole entry): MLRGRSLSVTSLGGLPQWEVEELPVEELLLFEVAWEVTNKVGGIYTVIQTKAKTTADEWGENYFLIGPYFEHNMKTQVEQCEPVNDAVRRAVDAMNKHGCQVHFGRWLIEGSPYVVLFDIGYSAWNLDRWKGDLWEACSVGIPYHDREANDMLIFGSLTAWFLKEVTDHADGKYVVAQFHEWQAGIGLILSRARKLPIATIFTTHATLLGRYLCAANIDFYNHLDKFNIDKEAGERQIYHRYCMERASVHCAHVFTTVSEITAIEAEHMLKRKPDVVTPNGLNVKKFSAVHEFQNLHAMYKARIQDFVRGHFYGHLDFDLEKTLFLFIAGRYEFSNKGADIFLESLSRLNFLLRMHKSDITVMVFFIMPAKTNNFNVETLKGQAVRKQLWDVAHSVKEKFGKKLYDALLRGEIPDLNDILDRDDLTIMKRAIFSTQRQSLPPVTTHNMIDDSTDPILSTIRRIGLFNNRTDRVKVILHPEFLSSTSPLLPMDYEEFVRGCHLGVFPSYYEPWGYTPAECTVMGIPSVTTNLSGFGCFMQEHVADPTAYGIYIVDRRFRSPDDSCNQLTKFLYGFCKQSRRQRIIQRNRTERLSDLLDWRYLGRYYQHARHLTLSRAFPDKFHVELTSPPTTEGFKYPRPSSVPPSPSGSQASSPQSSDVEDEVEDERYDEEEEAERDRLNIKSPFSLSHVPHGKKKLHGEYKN
hGYS2 enzyme (recombinant hGYS2/GN1 protein), sequence (P46976 whole entry partner): as the sequence (P46976 whole entry partner) above

As to `CC(C)c1ccc([C@@H](NC(=O)[C@@H]2C[C@@H](F)CN2C(=O)Cc2nnn[nH]2)c2ccccc2)cc1F` [Compound 328, (2S,4R)-4-fluoro-N-[(S)-[3-fluoro-4-(propan-2-yl)phenyl](phenyl)methyl]-1-[2-(1H-1,2,3,4-tetrazol-5-yl)acetyl]pyrrolidine-2-carboxamide], the IC50 in experiment [1] was 0.016 µM; in experiment [2], > 100 µM.

Turning to `CC(C)c1ccc([C@@H](NC(=O)[C@@H]2C[C@@H](F)CN2C(=O)Cn2ccnn2)c2ccccc2)cc1F` [Compound 331, (2S,4R)-4-fluoro-N-[(S)-[3-fluoro-4-(propan-2-yl)phenyl](phenyl)methyl]-1-[2-(1H-1,2,3-triazol-1-yl)acetyl]pyrrolidine-2-carboxamide], the IC50 in experiment [1] was 0.023 µM; in experiment [2], > 100 µM.

For the compound `CC(C)c1ccc([C@@H](NC(=O)[C@@H]2C[C@@H](F)CN2C(=O)C2(c3nnco3)CC2)c2ccccc2)cc1F` [Compound 333, (2S,4R)-4-fluoro-N-[(S)-[3-fluoro-4-(propan-2-yl)phenyl](phenyl)methyl]-1-[1-(1,3,4-oxadiazol-2-yl)cyclopropanecarbonyl] pyrrolidine-2-carboxamide], the IC50 in experiment [1] is 0.165 µM; in experiment [2], > 100 µM.

In the case of `CC(C)c1ccc([C@@H](NC(=O)[C@@H]2C[C@@H](F)CN2C(=O)C(C)(C)c2nnco2)c2ccccc2)cc1F` [Compound 334], the IC50 in experiment [1] is 0.145 µM; in experiment [2], > 100 µM.

As to `CC(C)c1ccc([C@@H](NC(=O)[C@@H]2C[C@@H](F)CN2C(=O)Cc2ccnn2C)c2ccccc2)cc1F` [Compound 337, (2S,4R)-4-fluoro-N-[(S)-[3-fluoro-4-(propan-2-yl)phenyl](phenyl)methyl]-1-[2-(1-methyl-1H-pyrazol-5-yl)acetyl]pyrrolidine-2-carboxamide], the IC50 in experiment [1] was 0.027 µM; in experiment [2], > 100 µM.

As for `CC(C)c1ccc([C@@H](NC(=O)[C@@H]2C[C@@H](F)CN2C(=O)Cc2cnccn2)c2ccccc2)cc1F` [Compound 344], the IC50 in experiment [1] was 0.013 µM; in experiment [2], > 100 µM.

As to `CC(C)c1ccc([C@@H](NC(=O)[C@@H]2C[C@@H](F)CN2C(=O)Cc2cncnc2)c2ccccc2)cc1F` [Compound 345, (2S,4R)-4-fluoro-N-[(S)-[3-fluoro-4-(propan-2-yl)phenyl](phenyl)methyl]-1-[2-(pyrimidin-5-yl)acetyl]pyrrolidine-2-carboxamide], the IC50 was 0.032 µM in experiment [1] and > 100 µM in experiment [2].

For the compound `CC(C)c1ccc([C@@H](NC(=O)[C@@H]2C[C@@H](F)CN2C(=O)Cc2ccncn2)c2ccccc2)cc1F` [Compound 346, (2S,4R)-4-fluoro-N-[(S)-[3-fluoro-4-(propan-2-yl)phenyl](phenyl)methyl]-1-[2-(pyrimidin-4-yl)acetyl]pyrrolidine-2-carboxamide], the IC50 in experiment [1] is 0.024 µM; in experiment [2], > 100 µM.

As to `CC(C)c1ccc([C@@H](NC(=O)[C@@H]2C[C@@H](F)CN2C(=O)Cc2ccn(C)n2)c2ccccc2)cc1F` [Compound 350, (2S,4R)-4-fluoro-N-[(S)-[3-fluoro-4-(propan-2-yl)phenyl](phenyl)methyl]-[2-(1-methyl-1H-pyrazol-3-yl)acetyl]pyrrolidine-2-carboxamide], the IC50 was 0.02 µM in experiment [1] and > 100 µM in experiment [2].

In the case of `CC(C)c1ccc([C@@H](NC(=O)[C@@H]2C[C@@H](F)CN2C(=O)CNC(=O)N2CCN(C(=O)OC(C)(C)C)CC2)c2ccccc2)cc1F` [Compound 366, tert-butyl 4-({2-[(2S,4R)-4-fluoro-2-{[(S)-[3-fluoro-4-(propan-2-yl)phenyl](phenyl)methyl]carbamoyl}pyrrolidin-1-yl]-2-oxoethyl}carbamoyl) piperazine-1-carboxylate], the IC50 in experiment [1] was 0.02 µM; in experiment [2], > 100 µM.
